Data published in patent publication US9808434B2, “Compound for treating cancer and diabetes” (CITY OF HOPE, priority 2011, dated 2017).

Experiments:
B16 mouse melanoma tumor = assay: Western-blot of signaling proteins in B16 tumor tissue lysates; format: in vivo; conditions: band density ratio
Protocol: Western-blot analyses of signaling proteins in tumor tissue lysates in control and COH-SR4 treated groups were shown in FIG. 58. Crude fraction (about 50 μg) and WB with various antibodies were used.

[1] = Blood chemistries in C57 B mice; format: in vivo, mouse; conditions: 4 mg/kg b.w. alternate day, 2 weeks
Protocol: To evaluate the potential toxicity of COH-SR4 on animals, C57 B mice were treated with 0.1 mg/mice (4 mg/kg b.w.) of COH-SR4 or with vehicle on alternate day for 2 weeks (n=6). After the treatment period, blood and plasma/serum were isolated and analyzed. […] The plasma alanine transaminase (ALT) and alkaline phosphatase (ALP) were moderately higher in COH-SR4-treated mice (p<0.05), while the levels of two other liver enzymes; aspartate transaminase (AST) and lactate dehydrogenase (LDH) were similar with control mice (Table 5).

[2] = tested on: isolated mouse liver mitochondria; assay: Oxygen consumption rate in isolated liver mitochondria; conditions: increasing concentrations
Protocol: Mitochondria were isolated from the livers of 10 week old male C57BL/6 mice. Mice were euthanized by CO2 inhalation followed by cervical dislocation. Livers were removed, minced with scissors, and immediately placed in ˜10 volumes of ice-cold mitochondria isolation medium (250 mM sucrose, 10 mM Tris-HCl, 1 mM EGTA, 1% fatty acid/endotoxin-free BSA, pH 7.4). The presence of BSA in the medium allowed the endogenous free fatty acids to be chelated from the homogenate suspension. The tissues were homogenized using 25-30 strokes in Potter-Elvehjem tissue grinder. Following centrifugation at 800×g for 10 min at 4° C., the fats/lipids were carefully aspirated, and the remaining supernatant was filtered through sterile 0.40 micron nylon mesh membrane and centrifuged at 8,000×g for 10 min at 4° C. […] The mitochondrial protein concentration was determined by the DC Protein Assay kit (Bio-Rad, Hercules, Calif.) with BSA as a standard. […]
Isolated mouse liver mitochondria (2 μg/well or 5 μg/well) were seeded on Seahorse 96-well plate, and respiration (OCR) was measured on mitochondria respiring either on pyruvate (10 mM) and malate (2 mM) or succinate (10 mM) and rotenone (2 μM) using a Seahorse 96 Flux Analyzers according to Rogers et al (90).

A375 = assay: Colony formation assay, A375; format: cell-based, human; conditions: 5 μM
Protocol: Cell survival was evaluated using a standard colony-forming assay. In total, 1×10^5 cells/mL were incubated with COH-SR4 (1.5 μM or 5 μM) or elesclomol (5 μM) for 24 h, and aliquots of 50 or 100 μL were added to 60 mm size petri dishes, containing 4 mL culture medium. After 7 or 10 days, adherent colonies were fixed, stained with 0.5% methylene blue for 30 min and colonies were counted using the Innotech Alpha Imager HP (91).

[3] = tested on: ACL, adiponectin, C/EBPα, Glut4, PPARγ; assay: Adipogenic marker protein expression, Western blotting; format: cell-based, mouse; conditions: 7 days in DM + compound
Protocol: Post-confluent 3T3-L1 preadipocytes were differentiated for 7 days in the presence of differentiating media (DM), or DM+ test compounds (LR23 (5 μM, 25 μM, or 50 μM), LR59 (5 μM, 25 μM, or 50 μM), LR-90 (25 μM), ROS (50 μM), TSA (0.5 μM) or apicidin (1 μM)). Protein levels were analyzed by Western blotting and the relative expression of each protein was quantified using a densitometer and calculated according to the reference bands of β-actin (FIG. 8). Numbers above each blot represent fold increase over control (undifferentiated preadipocytes).
3T3-L1 preadipocytes cells were treated with differentiating media (DM) with COH-SR4 (1 μM, 3 μM, or 5 μM) or without for 7 days. […] As used in FIG. 9C, U=undifferentiated, D=differentiated with cocktail media.

[4] = tested on: Glioma Cells PBT-017 and/or U251; assay: Combination index COH-SR4 and 5-FU, cell line not stated; format: cell-based; conditions: COH-SR4 <0.5 μM + 5-FU <125 μM
Protocol: Effects of combination of COH-SR4 and a chemotherapy drug such as TMZ, SN38, CPT-11, and 5-FU were studied by combination index (CI) theorem and plot using the method described in Chou (“Experimental Design, and Computerized Simulation of Synergism and Antagonism in Drug Combination Studies,” Pharmacological Reviews, Vol. 58, No. 3), which is incorporated herein by reference in its entirety.
COH-SR4 and a chemotherapy drug (TMZ, SN38, CPT-11, or 5-FU) were dissolved in DMSO individually, and then diluted to the appropriate concentration in the same cell culture media before applying to cells of each cell line. After 4 days, the amount of ATP present in the cell lysates were assessed using Progema's CellGlo kit. The CI of each combination of COH-SR4 and the chemotherapy drug was calculated and plotted against the concentration of COH-SR4 for each concentration of the chemotherapy drug used.

[5] = tested on: undifferentiated 3T3-L1 cells; assay: Preadipocyte viability, MTT assay; format: cell-based, mouse; conditions: 3 days, 2.5-25 μM
Protocol: Undifferentiated 3T3-LI cells were treated with COH-SR2, COH-SR3, COH-SR4, COH-SR7, LR23 or LR59 for 3 days at a concentration of 2.5 μM, 5 μM, 10 μM, 15 μM, 20 μM, or 25 μM. The cell viability for each treatment was determined by MTT assay (FIG. 7).

A2058 p^0 cells = assay: Oxygen consumption rate in mitochondrial DNA-depleted cells; format: cell-based, human; conditions: compared with wild-type A2058; data not shown
Protocol: Oxygen consumption rate (OCR), a measure of OxPhos, and extracellular acidification rate (ECAR), a measure of lactate production by glycolysis, were measured using a Seahorse Xf^e96 Flux Analyzers (Seahorse Biosciences, North Billerica, Mass.). Cells were seeded in DMEM media in Seahorse 96-well tissue culture plates at a density of 5×10^3 cells/well and allowed to adhere for 24 h. Prior to the assay, the media was changed to unbuffered DMEM containing 25 mM glucose, 1 mM pyruvate and 1 mM glutamine, with 0.2% fatty acid/endotoxin-free BSA (w/v) (pH 7.4) and the cells were equilibrated for 30 min at 37° C. Test compounds were injected during the assay and OCR and ECAR were measured using 2-3 min measurement periods. Similar sets of experiments were performed in the presence of the mitochondria recoupler agent 6-KCH or the mitochondrial permeability transition (MPT) pore blocker CSA, where each compound was injected into the assay media prior to COH-SR4 or FCCP injection. […] OCR was measured throughout the different injections of the stressors and test compounds (indicated by arrows in the figures).
To verify that COH-SR4 acts directly on mitochondrial respiration, OCR in mitochondrial DNA-depleted (p^0) A2058 cells was measured, as well as freshly isolated mouse liver mitochondria and treated with either COH-SR4 or FCCP.

**Q.** Which results are given for O=C(Nc1cc(Cl)cc(Cl)c1)Nc1cc(Cl)cc(Cl)c1 [COH-SR4, 1,3-bis(3,5-dichlorophenyl) urea]?
**A.** Akt, ratio COH-SR4 group/Control Group (B16 mouse melanoma tumor): 0.84; Bcl2, ratio COH-SR4 group/Control Group (B16 mouse melanoma tumor): 0.39; Bim, ratio COH-SR4 group/Control Group (B16 mouse melanoma tumor): 5.8; CDK4, ratio COH-SR4 group/Control Group (B16 mouse melanoma tumor): 0.29; Cyclin B1, ratio COH-SR4 group/Control Group (B16 mouse melanoma tumor): 0.32; Fibronectin, ratio COH-SR4 group/Control Group (B16 mouse melanoma tumor): 0.22; Vimentin, ratio COH-SR4 group/Control Group (B16 mouse melanoma tumor): 0.39; pAMPK, ratio COH-SR4 group/Control Group (B16 mouse melanoma tumor): 3.1; pAkt, ratio COH-SR4 group/Control Group (B16 mouse melanoma tumor): 0.32; Hematocrit ([1]; mean ± SE, n=6): 41.0 ± 0.7%; Hemoglobin ([1]; mean ± SE, n=6): 13.9 ± 0.4 g/dL; Platelets ([1]; mean ± SE, n=6): 1055 ± 124 ×10^3/uL; RBC ([1]; mean ± SE, n=6): 8.7 ± 0.2 ×10^6/uL; WBC ([1]; mean ± SE, n=6): 7.4 ± 0.9 ×10^3/uL; ALP ([1]; plasma/serum): 119.3 ± 2.4 units/L; ALT ([1]; plasma/serum): 73.3 ± 2.4 units/L; AST ([1]; plasma/serum): 48.0 ± 3.0 units/L; Albumin ([1]; plasma/serum): 2.4 ± 0.1 g/dL; Cholsterol ([1]; plasma/serum): 82.0 ± 0.1 mg/dL; Creatinine ([1]; plasma/serum): 0.2 ± 0.0 mg/dL; Glucose ([1]; plasma/serum): 304.2 ± 21.1 mg/dL; LDH ([1]; plasma/serum): 822.7 ± 56.0 units/L; Triglycerides ([1]; plasma/serum): 78.7 ± 2.4 mg/dL; OCR of mitochondria respiring on pyruvate and malate or succinate-rotenone [2]: dose-dependently increased OCR of mitochondria; colony formation (A375): 42±6%; expression of adipogenic markers [3]: decreased expression of key transcription factors (C/EBPα, PPARγ) and proteins (ACL, adiponectin, FAS); combination effect (CI) with 5-FU [4]: synergism; growth of undifferentiated preadipocytes (MTT) [5]: inhibited growth of undifferentiated 3T3-L1 cells; OCR in mitochondrial DNA-depleted cells (A2058 p^0 cells): failed to increase OCR
